From patent publication US9328099B2, “Cyanomethylpyrazole carboxamides as janus kinase inhibitors” (Merck Sharp & Dohme Corp., priority 2011, dated 2016) come the findings set out here.

Molecules are shown by their SMILES.

As a reminder, the IC50 is the concentration at which inhibition is half-maximal.

The target in experiment [1] is JAK1 (Homo sapiens (Human), UniProt P23458). The experiment in a line: Jak Biochemical HTRF Assay, JAK1. The following applies: HTRF biochemical assay, GST-tagged catalytic domain; top concentration tested […]; read-out: JAK1 IC50. The source says: (§1) Jak Biochemical HTRF Assay Protocol
Chain of JAK1 (P23458 875-1153): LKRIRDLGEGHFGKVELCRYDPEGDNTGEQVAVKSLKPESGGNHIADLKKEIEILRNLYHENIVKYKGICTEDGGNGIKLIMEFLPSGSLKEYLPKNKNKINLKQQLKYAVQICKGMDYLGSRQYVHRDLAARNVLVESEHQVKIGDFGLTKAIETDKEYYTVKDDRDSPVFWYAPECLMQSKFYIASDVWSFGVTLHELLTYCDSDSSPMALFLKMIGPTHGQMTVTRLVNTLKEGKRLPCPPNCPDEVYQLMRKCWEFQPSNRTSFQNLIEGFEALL
(§2) Subsequent reagent additions employed an Agilent Bravo.
(In general: Time-resolved FRET reads energy transfer from a long-lived donor to a nearby acceptor.)

The target of experiment [2] is JAK2 (Homo sapiens (Human), UniProt O60674). The experiment in a line: Jak Biochemical HTRF Assay, JAK2. The following applies: HTRF biochemical assay, GST-tagged catalytic domain; top concentration tested […].
Chain of JAK2 (O60674 849-1124): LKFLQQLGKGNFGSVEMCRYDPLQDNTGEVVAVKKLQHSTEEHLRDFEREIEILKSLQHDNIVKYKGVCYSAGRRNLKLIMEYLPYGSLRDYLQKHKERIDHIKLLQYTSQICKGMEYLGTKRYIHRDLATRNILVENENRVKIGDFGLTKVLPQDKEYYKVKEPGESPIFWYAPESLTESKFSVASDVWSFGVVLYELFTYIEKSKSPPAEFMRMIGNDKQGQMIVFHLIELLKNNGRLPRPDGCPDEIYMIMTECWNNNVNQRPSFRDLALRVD
Excerpt: as §1, §2

Consider `N#CCC1(n2cc(C(N)=O)c(Nc3ccnc(F)c3)n2)CCC(NC2CCCCC2)CC1` (stereo not drawn) [Example 40-51, Cis or trans 1-[1-(cyanomethyl)-4-(cyclohexylamino)cyclohexyl]-3-[(2-fluoropyridin-4-yl)amino]-1H-pyrazole-4-carboxamide], for which the IC50 was 598 nM in experiment [1] and greater than 1500 nM in experiment [2].

`CC(C)(O)C(=O)N1CCC(CC#N)(n2cc(C(N)=O)c(Nc3ccnc(F)c3)n2)CC1` [Example 34-43, 1-[4-(cyanomethyl)-1-(2-hydroxy-2-methylpropanoyl)piperidin-4-yl]-3-[(2-fluoropyridin-4-yl)amino]-1H-pyrazole-4-carboxamide]: the IC50 in experiment [1] came to 11 nM; in experiment [2], 234 nM.

In the case of `COc1cccc(S(=O)(=O)N2CCC(CC#N)(n3cc(C(N)=O)c(Nc4ccccc4)n3)CC2)c1` [Example 37-10, 1-{4-(cyanomethyl)-1-[(3-methoxyphenyl)sulfonyl]piperidin-4-yl}-3-(phenylamino)-1H-pyrazole-4-carboxamide], the results for the IC50 in experiment [1] and in experiment [2] were 0.7 nM and 3 nM, respectively.

As for `N#CCC1(n2cc(C(N)=O)c(Nc3ccccc3)n2)COC1` [Example 2-20, 1-[3-(cyanomethyl)oxetan-3-yl]-3-(phenylamino)-1H-pyrazole-4-carboxamide], the half-maximal inhibitory concentration (IC50) in experiment [1] worked out at 33 nM; in experiment [2], 241 nM.

As to `N#CCC1(n2cc(C(N)=O)c(Nc3ccc(F)cc3)n2)CCC(Nc2ccc(Cl)cc2)CC1` (stereo not drawn) [Example 40-53, Cis or trans 1-{4-[(4-chlorophenyl)amino]-1-(cyanomethyl)cyclohexyl}-3-[(4-fluorophenyl)amino]-1H-pyrazole-4-carboxamide], the results for the concentration for half-maximal inhibition (IC50) in experiment [1] and in experiment [2] were 400 nM and greater than 1500 nM, respectively.

As for `N#CCC1(n2cc(C(N)=O)c(Nc3ccnc(F)c3)n2)CCN(Cc2cnn3ccccc23)CC1` [Example 22-17], the IC50 is 17 nM in experiment [1] and 503 nM in experiment [2].

`CC(C)OC(=O)c1ccc(Nc2nn(C3(CC#N)CCN(C(=O)OC(C)(C)C)CC3)cc2C(N)=O)cc1` [Example 4-2, tert-butyl 4-[4-carbamoyl-3-({4-[(1-methylethoxy)carbonyl]phenyl}amino)-1H-pyrazol-1-yl]-4-(cyanomethyl)piperidine-1-carboxylate]: the concentration for half-maximal inhibition (IC50) was found to be 2 nM in experiment [1] and 20 nM in experiment [2].

For `Cc1ccc(NC(=O)N2CC(CC#N)(n3cc(C(N)=O)c(Nc4ccccc4)n3)C2)c(C)c1` [Example 38-19, 1-{3-(cyanomethyl)-1-[(2,4-dimethylphenyl)carbamoyl]azetidin-3-yl}-3-(phenylamino)-1H-pyrazole-4-carboxamide], the concentration for half-maximal inhibition (IC50) is 23 nM in experiment [1] and 334 nM in experiment [2].

With `COc1cccc(CN2CCC(CC#N)(n3cc(C(N)=O)c(Nc4ccnc(F)c4)n3)CC2)c1` [Example 22-63, 1-[4-(cyanomethyl)-1-(3-methoxybenzyl)piperidin-4-yl]-3-[(2-fluoropyridin-4-yl)amino]-1H-pyrazole-4-carboxamide], the half-inhibitory concentration (IC50) turned out to be 0.5 nM in experiment [1] and 20 nM in experiment [2].

Regarding `N#CCC1(n2cc(C(N)=O)c(Nc3ccc(F)cc3)n2)CCN(c2ccc(OC(F)F)cn2)CC1` [Example 3-19, 1-{4-(cyanomethyl)-1-[5-(difluoromethoxy)pyridin-2-yl]piperidin-4-yl}-3-[(4-fluorophenyl)amino]-1H-pyrazole-4-carboxamide], the half-inhibitory concentration (IC50) in experiment [1] was 0.6 nM; in experiment [2] it was 18 nM.

In the case of `N#CCC1(n2cc(C(N)=O)c(Nc3ccnc(F)c3)n2)CCC(Nc2ccc(F)c(F)c2)CC1` (stereo not drawn) [Example 40-20, Cis or trans 1-{1-(cyanomethyl)-4-[(3,4-difluorophenyl)amino]cyclohexyl}-3-[(2-fluoropyridin-4-yl)amino]-1H-pyrazole-4-carboxamide], the values for the concentration for half-maximal inhibition (IC50) in experiment [1] and in experiment [2] were 1 nM and 43 nM, respectively.

For `CN1CCC(OC(=O)N2CCC(CC#N)(n3cc(C(N)=O)c(Nc4ccccc4)n3)CC2)CC1` [Example 30-42, 1-methylpiperidin-4-yl 4-[4-carbamoyl-3-(phenylamino)-1H-pyrazol-l-yl]-4-(cyanomethyl)piperidine-1-carboxylate], the half-inhibitory concentration (IC50) amounted to 41 nM in experiment [1] and 798 nM in experiment [2].

As for `N#CCC1(n2cc(C(N)=O)c(Nc3ccc(F)cc3)n2)CCN(Cc2ccccc2)CC1` [Example 22-7, 1-[1-benzyl-4-(cyanomethyl)piperidin-4-yl]-3-[(4-fluorophenyl)amino]-1H-pyrazole-4-carboxamide], the IC50 stood at 0.3 nM in experiment [1] and 13 nM in experiment [2].

On to `N#CCC1(n2cc(C(N)=O)c(Nc3ccnc(F)c3)n2)CCC(NCc2ccccc2Cl)CC1` (stereo not drawn) [Example 41-10, Cis or trans 1-{4-[(2-chlorobenzyl)amino]-1-(cyanomethyl)cyclohexyl}-3-[(2-fluoropyridin-4-yl)amino]-1H-pyrazole-4-carboxamide], for which the concentration for half-maximal inhibition (IC50) in experiment [1] was found to be 0.03 nM; in experiment [2] it was 2 nM.

As for `N#CCC1(n2cc(C(N)=O)c(Nc3ccnc(F)c3)n2)CCC(NCc2ccccc2)CC1` (stereo not drawn) [Example 41-18, Cis or trans 1-[4-(benzylamino)-1-(cyanomethyl)cyclohexyl]-3-[(2-fluoropyridin-4-yl)amino]-1H-pyrazole-4-carboxamide], the IC50 in experiment [1] was 0.1 nM; in experiment [2], 10 nM.

Consider `CN(C)CCCOC(=O)N1CC(CC#N)(n2cc(C(N)=O)c(Nc3ccccc3)n2)C1` [Example 30-71, 3-(dimethylamino)propyl 3-[4-carbamoyl-3-(phenylamino)-1H-pyrazol-1-yl]-3-(cyanomethyl)azetidine-1-carboxylate], for which the IC50 in experiment [1] worked out at 200 nM; in experiment [2], 1480 nM.

With `N#CCC1(n2cc(C(N)=O)c(Nc3ccc(F)cc3)n2)CCN(Cc2ccnc3[nH]ccc23)CC1` [Example 22-53, 1-[4-(cyanomethyl)-1-(1H-pyrrolo[2,3-b]pyridin-4-ylmethyl)piperidin-4-yl]-3-[(4-fluorophenyl)amino]-1H-pyrazole-4-carboxamide], the IC50 in experiment [1] is 4 nM; in experiment [2], 87 nM.

As for `N#CCC1(n2cc(C(N)=O)c(Nc3ccnc(F)c3)n2)CCC(Nc2ccc(F)cc2F)CC1` (stereo not drawn) [Example 40-37, Cis or trans 1-{1-(cyanomethyl)-4-[(2,4-difluorophenyl)amino]cyclohexyl}-3-[(2-fluoropyridin-4-yl)amino]-1H-pyrazole-4-carboxamide], the half-maximal inhibitory concentration (IC50) stood at 16 nM in experiment [1] and 506 nM in experiment [2].

For `Cc1ccc(CN2CCC(CC#N)(n3cc(C(N)=O)c(Nc4ccccc4)n3)CC2)cc1` [Example 21-7, 1-[4-(cyanomethyl)-1-(4-methylbenzyl)piperidin-4-yl]-3-(phenylamino)-1H-pyrazole-4-carboxamide], the figures for the half-inhibitory concentration (IC50) in experiment [1] and in experiment [2] were 11 nM and 135 nM, respectively.

Regarding `COCCOC(=O)N1CCC(CC#N)(n2cc(C(N)=O)c(Nc3ccc(S(=O)(=O)C(F)(F)F)cc3)n2)CC1` [Example 27-2, 2-methoxyethyl 4-(4-carbamoyl-3-(4-(trifluoromethylsulfonyl)phenylamino)-1H-pyrazol-1-yl)-4-(cyanomethyl)piperidine-1-carboxylate], the half-maximal inhibitory concentration (IC50) in experiment [1] turned out to be 0.3 nM; in experiment [2] it was 6 nM.

Take `N#CCC1(n2cc(C(N)=O)c(Nc3ccnc(F)c3)n2)CCN(C(=O)OCC(F)(F)F)CC1` [Example 30-1, 2,2,2-Trifluoroethyl 4-{4-carbamoyl-3-[(2-fluoropyridin-4-yl)amino]-1H-pyrazol-1-yl}-4-(cyanomethyl)piperidine-1-carboxylate]: the IC50 in experiment [1] was 0.2 nM; in experiment [2] it was 8 nM.

As for `CC(C)(C)OC(=O)N1CCC(CC#N)(n2cc(C(N)=O)c(Nc3ccc(S(=O)(=O)C(F)F)cc3)n2)CC1` [Example 9-16, tert-butyl 4-[4-carbamoyl-3-({4-[(difluoromethyl)sulfonyl]phenyl}amino)-1H-pyrazol-1-yl]-4-(cyanomethyl)piperidine-1-carboxylate], the half-inhibitory concentration (IC50) in experiment [1] amounted to 0.09 nM; in experiment [2], 0.6 nM.

As for `Cc1c(Cl)cccc1NC(=O)N1CC(CC#N)(n2cc(C(N)=O)c(Nc3ccccc3)n2)C1` [Example 38-22, 1-{1-[(3-chloro-2-methylphenyl)carbamoyl]-3-(cyanomethyl)azetidin-3-yl}-3-(phenylamino)-1H-pyrazole-4-carboxamide], the half-inhibitory concentration (IC50) in experiment [1] came out at 19 nM; in experiment [2], 249 nM.

For the compound `CC(C)[C@@H](O)C(=O)N1CCC(CC#N)(n2cc(C(N)=O)c(Nc3ccnc(F)c3)n2)CC1` [Example 34-46, 1-{4-(cyanomethyl)-1-[(2R)-2-hydroxy-3-methylbutanoyl]piperidin-4-yl}-3-[(2-fluoropyridin-4-yl)amino]-1H-pyrazole-4-carboxamide], the IC50 stood at 2 nM in experiment [1] and 139 nM in experiment [2].

`N#CCC1(n2cc(C(N)=O)c(Nc3ccnc(F)c3)n2)CCC(NCc2ccncc2)CC1` (stereo not drawn) [Example 41-13, Cis or trans 1-{1-(cyanomethyl)-4-[(pyridin-4-ylmethyl)amino]cyclohexyl}-3-[(2-fluoropyridin-4-yl)amino]-1H-pyrazole-4-carboxamide]: the IC50 in experiment [1] was 86 nM; in experiment [2], 1000 nM.

For `CN1CCC(COC(=O)N2CC(CC#N)(n3cc(C(N)=O)c(Nc4ccccc4)n3)C2)CC1` [Example 30-73, (1-methylpiperidin-4-yl)methyl-3-[4-carbamoyl-3-(phenylamino)-1H-pyrazol-1-yl]-3-(cyanomethyl)azetidine-1-carboxylate], the 50% inhibitory concentration (IC50) in experiment [1] amounted to 130 nM; in experiment [2] it was 1480 nM.

For `COC1CN(C2CCC(CC#N)(n3cc(C(N)=O)c(Nc4ccc(F)cc4)n3)CC2)C1` (stereo not drawn) [Example 40-74, Cis or trans 1-[1-(cyanomethyl)-4-(3-methoxyazetidin-1-yl)cyclohexyl]-3-[(4-fluorophenyl)amino]-1H-pyrazole-4-carboxamide], the concentration for half-maximal inhibition (IC50) came to 1 nM in experiment [1] and 35 nM in experiment [2].

As to `N#CCC1(n2cc(C(N)=O)c(Nc3ccc(F)cc3)n2)CCN(c2ccncn2)CC1` [Example 26, 1-[4-(Cyanomethyl)-1-pyrimidin-4-ylpiperidin-4-yl]-3-[(4-fluorophenyl)amino]-1H-pyrazole-4-carboxamide], the IC50 in experiment [1] worked out at 0.4 nM; in experiment [2], 5 nM.
